{"source": "patent US20180125795A1", "about": "“[…] COMPOSITIONS AND METHODS” (ThermoLife International, LLC, priority 2017, published 2018)", "tested_on": "human subject", "assay": "Post-exercise recovery (whole-body oxygen consumption)", "assay_type": "in vivo", "method": "The administration of cinnamaldehyde promotes post-exercise recovery by reducing the time for a subject's oxygen consumption level (VO2) to return to his or her pre-exercise level when cinnamaldehyde is administered after exercise. In these implementations, cinnamaldehyde is administered with a protein and/or a carbohydrate. The protein may be any protein commonly used in nutritional supplement manufacture, which includes but is not limited to whey protein, milk protein, casein protein, beef protein, soy protein, hemp protein, rice protein, canola protein, spirulina, and pea protein. The carbohydrate may by any commonly used form of simple or complex carbohydrates used in the manufacture of dietary supplements, which includes but is not limited glucose, fructose, dextrose, palatinose, maltodextrin, various starches, activated barley, waxy maize, cereals, and oats. In a preferred embodiment, cinnamaldehyde is administered to the human subject within two hours of completion of exercise, for example within 90 minutes, 60 minutes, or 30 minutes of completion of exercise.\nThe effect of cinnamaldehyde on promoting post-exercise exercise is best when cinnamaldehyde is administered within an hour after exercise and its effect is reduced when administered two hours after exercise. The effect of cinnamaldehyde on promoting post-exercise exercise is enhanced when it is administered with a protein and/or a carbohydrate (for example, a combination of whey powder and glucose).", "data": [{"molecule": "O=CC=Cc1ccccc1", "note": "[cinnamaldehyde]", "values": [{"measurement": "time for whole-body oxygen consumption to return to pre-exercise levels", "setting": "administered after the human subject completed an exercise session", "result": "reduced the time"}, {"measurement": "effect on promoting post-exercise recovery", "setting": "administered two hours after exercise", "result": "reduced"}, {"measurement": "effect on promoting post-exercise recovery", "setting": "administered with a protein and/or a carbohydrate (e.g. whey powder and glucose)", "result": "enhanced"}, {"measurement": "effect on promoting post-exercise recovery", "setting": "administered within an hour after exercise", "result": "best"}]}]}
